Results on 16 molecules are retold here after ChEMBL document CHEMBL4842349, “Enhanced pyrazolopyrimidinones cytotoxicity against glioblastoma cells activated by ROS-Generating cold atmospheric plasma” (Eur J Med Chem, 2021).

For orientation: IC50 means the concentration at which inhibition is half-maximal.

Activity calls are given as the source filed them. The rule behind the calls is not given here.

In test [1] the test system is U-251. Kind of test: Cytotoxicity against human U-251MG cells assessed as reduction in cell viability measured after 48 hrs by alamar blue assay. The settings on record: U-251, 48 h. The class given is functional, cell-based.
In test [2] the test system is U-251. Briefly: Cytotoxicity against cold atmospheric plasma (CAP)-treated human U-251MG cells assessed as decrease in cell viability treated with CAP for 30 secs followed by incubated with compound for 48 hrs by alamar blue assay. The class given is functional, cell-based. The settings on record: U-251, 48 h. (The colour change of resazurin is a common sign of viable cells or microbes.)

A short description of test [3]: Prodrug activation in human U-251MG cells assessed as increase in cold atmospheric plasma (CAP) induced ROS-mediated cytotoxicity treated with CAP for 40 secs followed by incubated with compound for 48 hrs in presence of NAC by alamar blue assay. The class given is functional, cell-based. The conditions noted are these: U-251, 48 h.
Test [4] deals with U-251. Kind of test: Cytotoxicity against human U-251MG cells assessed as distinct morphological changes at 0.3 to 2000 uM measured after 48 hrs by Live/dead staining based fluorescent analysis. The class given is functional, cell-based. The settings on record: dose 0.3-2000 µM.
The test system of test [5] is U-251. Briefly: Prodrug activation in human U-251MG cells assessed as enhancement of cytotoxicity at >200 uM in presence of 3 mM AAPH measured after 48 hrs by Alamar blue assay. The class given is functional, cell-based. The settings on record: dose microM >200, time 48.0 hrs.
Test [6] concerns U-251. Kind of test: Cytotoxicity against human U-251MG cells assessed as decrease in cell viability by measuring combination index treated with cold atmospheric plasma for 30 secs followed by incubated with compound for 48 hrs by alamar blue assay. The class given is functional.
Test [7] has as its system HEK293. Briefly: Prodrug activation in human HEK293 cells assessed as enhancement of cytotoxicity at >200 uM in presence of 3 mM AAPH measured after 48 hrs by Alamar blue assay. The conditions noted are these: dose microM >200, time 48.0 hrs. The class given is functional, cell-based.
Test [8] has as its system U-251. Kind of test: Cytotoxicity against human U-251MG cells assessed as decrease in cell viability by measuring combination index treated with cold atmospheric plasma for 40 secs followed by incubated with compound for 48 hrs by alamar blue assay. The class given is functional.
Test [9] in a line: Prodrug activation in human U-251MG cells assessed as increase in cold atmospheric plasma (CAP) induced ROS-mediated cytotoxicity treated with CAP for 30 secs in DMSO followed by incubated with compound for 48 hrs by alamar blue assay. The class given is functional, cell-based. The conditions noted are these: U-251, 48 h.
Test [10] relates to U-251. Briefly: Cytotoxicity against human U-251MG cells assessed as increase in dead cells stained with red (EthD-1) at 0.3 to 2000 uM measured after 48 hrs by Live/dead staining based fluorescent analysis. The class given is functional, cell-based. The settings on record: dose 0.3-2000 µM.
In test [11] the test system is U-251. Kind of test: Prodrug activation in human U-251MG cells assessed as enhancement of cytotoxicity at >200 uM combined with 0.5 mMAAPH measured after 48 hrs by Alamar blue assay. The settings on record: dose microM >200, time 48.0 hrs. The class given is functional, cell-based.
A short description of test [12]: Prodrug activation in human U-251MG cells assessed as increase in cold atmospheric plasma (CAP) induced ROS-mediated cytotoxicity treated with CAP for 20 secs followed by incubated with compound for 48 hrs by alamar blue assay. The conditions noted are these: U-251, 48 h. The class given is functional, cell-based.
Test [13] relates to U-251. Briefly: Cytotoxicity against human U-251MG cells assessed as reduction in cell viability at 2000 uM measured after 48 hrs by alamar blue assay relative to control. The class given is functional.
A short description of test [14]: Prodrug activation in human U-251MG cells assessed as decrease in cell viability at low concentrations in presence of AAPH measured after 48 hrs by Alamar blue assay. The class given is functional.
For test [15], the system named is HEK293. Briefly: Cytotoxicity against human HEK293 cells assessed as reduction in cell viability measured after 48 hrs by alamar blue assay. The class given is functional, cell-based. The settings on record: HEK293, 48 h.
In test [16] the test system is U-251. Kind of test: Cytotoxicity against human U-251MG cells assessed as decrease in cell viability by measuring combination index treated with cold atmospheric plasma for 10 secs followed by incubated with compound for 48 hrs by alamar blue assay. The class given is functional.
Test [17] in a line: Prodrug activation in human U-251MG cells assessed as increase in cold atmospheric plasma (CAP) induced ROS-mediated cytotoxicity treated with CAP for 40 secs followed by incubated with compound for 48 hrs by alamar blue assay. The class given is functional, cell-based. The settings on record: U-251, 48 h.
Test [18] deals with U-251. Briefly: Prodrug activation in CAP treated human U-251MG cells assessed as cell cytotoxicity incubated with cold atmospheric plasma (CAP) treated culture medium for 0 to 5 hrs followed by incubation with fresh medium containing prodrug for 48 hrs by Alamar blue assay. The class given is functional, cell-based.
The subject of test [19] is U-251. Kind of test: Cytotoxicity against human U-251MG cells assessed as decrease in live cells stained with green (Calcein-AM) at 0.3 to 2000 uM measured after 48 hrs by Live/dead staining based fluorescent analysis. The class given is functional, cell-based. The settings on record: dose 0.3-2000 µM.
Test [20] can be described thus: Prodrug activation in human U-251MG cells assessed as increase in cold atmospheric plasma (CAP) induced ROS-mediated cytotoxicity treated with CAP for 30 secs followed by incubated with compound for 48 hrs by alamar blue assay. The class given is functional, cell-based. The settings on record: U-251, 48 h.
Test [21] is described as follows: Prodrug activation in human HEK293 cells assessed as decrease in cell viability at low concentrations in presence of AAPH measured after 48 hrs by Alamar blue assay. The class given is functional.
Test [22] is described as follows: Prodrug activation in human U-251MG cells assessed as increase in cold atmospheric plasma (CAP) induced ROS-mediated cytotoxicity treated with CAP for 10 mins in DMSO followed by incubated with compound for 48 hrs by alamar blue assay. The class given is functional, cell-based.
Test [23] is described as follows: Prodrug activation in human U-251MG cells assessed as increase in cold atmospheric plasma (CAP) induced ROS-mediated cytotoxicity treated with CAP for 10 secs followed by incubated with compound for 48 hrs by alamar blue assay. The class given is functional, cell-based. The conditions noted are these: U-251, 48 h.
Test [24] concerns U-251. Kind of test: Cytotoxicity against human U-251MG cells assessed as decrease in cell viability by measuring combination index treated with cold atmospheric plasma for 20 secs followed by incubated with compound for 48 hrs by alamar blue assay. The class given is functional.
Test [25] has as its system U-251. Kind of test: Cytotoxicity against human U-251MG cells assessed as reduction in cell viability at 290 uM measured after 48 hrs by alamar blue assay relative to control. The class given is functional.
In test [26] the test system is U-251. Briefly: Cytotoxicity against human U-251MG cells assessed as reduction in cell viability at 0.3 uM measured after 48 hrs by alamar blue assay relative to control. The class given is functional.
For test [27], the system named is HEK293. Briefly: Prodrug activation in human HEK293 cells assessed as enhancement of cytotoxicity at >200 uM combined with 0.5 mM AAPH measured after 48 hrs by Alamar blue assay. The settings on record: dose microM >200, time 48.0 hrs. The class given is functional, cell-based.
The subject of test [28] is U-251. Briefly: Prodrug activation in human U-251MG cells assessed as cell cytotoxicity treated with prodrug in overnight storage cold atmospheric plasma (CAP) activated culture medium for 48 hrs by Alamar blue assay. The class given is functional, cell-based.
For test [29], the system named is U-251. Kind of test: Cytotoxicity against cold atmospheric plasma (CAP)-treated human U-251MG cells assessed as decrease in cell viability treated with CAP for 15 secs followed by incubated with compound for 6 days by alamar blue assay. The class given is functional, cell-based. The settings on record: U-251, 144 h.
The subject of test [30] is U-251. Kind of test: Cytotoxicity against cold atmospheric plasma (CAP)-treated human U-251MG cells assessed as decrease in cell viability treated with CAP for 30 secs followed by incubated with compound for 6 days by alamar blue assay. The conditions noted are these: U-251, 144 h. The class given is functional, cell-based.
In test [31] the test system is U-251. Kind of test: Cytotoxicity against human U-251MG cells assessed as decrease in cell viability incubated for 6 days by alamar blue assay. The class given is functional, cell-based. The settings on record: U-251, 144 h.
Test [32] has as its system U-251. Briefly: Prodrug activation in human U-251MG cells assessed as enhancement of cytotoxicity pretreated with prodrug followed by cold atmospheric plasma (CAP) treatment for 10 to 40 sec in culture medium and measured after 48 hrs by alamar blur assay. The class given is functional, cell-based.

Take `COc1ccc(-c2cc(=O)n3nc(-c4ccccc4)cc3[nH]2)cc1`: the IC50 in the test on U-251 [1] worked out at 13.4 µM; with U-251 [2], 5670 µM.

With `Cc1cc2[nH]c(-c3ccccc3)cc(=O)n2n1`, the IC50 was 95.7 µM in [3]; 215 µM in [9]; 31.1 µM in [12]; 123 µM in the test with HEK293 [15]; 37.1 µM in [17]; 293 µM in the test with U-251 [1]. Moreover, the IC50 in test [20] came to 39.2 µM; in test [22] it was 246 µM; in test [23] it was 54.4 µM; in the test with U-251 [2], 56.8 µM. Moreover, the outcome with U-251 [4], in the test with U-251 [10] and with U-251 [19] was Active. In addition, the result in the test with U-251 [5], in the test with HEK293 [7], in the test with U-251 [11], in the test with U-251 [18], with HEK293 [27] and in the test with U-251 [28] was inactive. The CI with U-251 [6] stood at 0.4756; in the test with U-251 [8], 0.578; with U-251 [16] it was 0.311; with U-251 [24], 0.3352. Moreover, the Activity in the test with U-251 [13] is recorded as 10%; in test [14] it was 50%; in test [21], 50%; with U-251 [25], 50%; in the test on U-251 [26] it was 100%.

Take `CC(C)c1cc2[nH]c(-c3cc(C(F)(F)F)cc(C(F)(F)F)c3)cc(=O)n2n1`: the IC50 with U-251 [1] worked out at 42.9 µM; with U-251 [2], 19 µM.

For the molecule `Cn1nnc2c(C(N)=O)ncn2c1=O` [TEMOZOLOMIDE], the IC50 with U-251 [29] amounted to 7.28 µM; in the test on U-251 [30], 6.43 µM; with U-251 [31], 12.7 µM.

Regarding `Cc1cc(C)cc(-c2cc(=O)n3nc(C)cc3[nH]2)c1`, in the test on U-251 [32], the result was inactive.

Turning to `COc1ccc(-c2cc(=O)n3nc(C(C)C)cc3[nH]2)cc1`, the IC50 was found to be 197 µM in the test with U-251 [1] and 127 µM with U-251 [2].

For the molecule `O=c1cc(-c2ccccc2)[nH]c2cc(-c3ccccc3)nn12`, the IC50 in the test with U-251 [1] is 77.7 µM; with U-251 [2] it was 73.6 µM.

In the case of `CC(C)(C)c1cc2[nH]c(C(C)(C)C)cc(=O)n2n1`, the IC50 in the test on U-251 [1] stood at 941 µM; with U-251 [2], 62.4 µM.

In the case of `O=c1cc(-c2ccccc2)[nH]c2cc(-c3ccc(F)cc3)nn12`, the IC50 stood at 74.6 µM in the test on U-251 [1] and 44.4 µM in the test on U-251 [2].

In the case of `CCCCc1cc2[nH]c(-c3cc(C(F)(F)F)cc(C(F)(F)F)c3)cc(=O)n2n1`, the IC50 came out at 11.3 µM in the test on U-251 [1] and 11.4 µM in the test on U-251 [2].

Consider `O=c1cc(-c2ccccc2)[nH]c2cc(-c3cccc(Cl)c3)nn12`, for which the IC50 came out at 23.3 µM with U-251 [1] and 38.2 µM in the test on U-251 [2].

As to `CC(C)(C)c1cc2[nH]c(-c3cc(C(F)(F)F)cc(C(F)(F)F)c3)cc(=O)n2n1`, the figures for the IC50 with U-251 [1] and with U-251 [2] were 367 µM and 462 µM, respectively.

On to `Cc1cc(C)cc(-c2cc(=O)n3nc(C(C)C)cc3[nH]2)c1`, for which the figures for the IC50 in the test on U-251 [1] and with U-251 [2] were 502 µM and 609 µM, respectively.

As to `Cc1c(-c2ccccc2)[nH]c2cc(C(C)C)nn2c1=O`, the IC50 in the test on U-251 [1] worked out at 137 µM; with U-251 [2], 86.3 µM.

On to `Cc1ccc(-c2cc3[nH]c(-c4ccccc4)cc(=O)n3n2)cc1`, for which the results for the IC50 in the test with U-251 [1] and in the test with U-251 [2] were 148 µM and 86.7 µM, respectively.

Turning to `CC(C)c1cc2[nH]c(-c3ccc([N+](=O)[O-])cc3)cc(=O)n2n1`, the IC50 in the test on U-251 [1] was 25.5 µM; with U-251 [2], 12.9 µM.
